From patent US20100137313A1 (ASTRAZENECA AB, priority 2008, published 2010)

Target: S. pneumoniae Topoisomerase IV ATPase (ParE) (Streptococcus pneumoniae serotype 4, UniProt Q59961)
Test: S. pneumoniae Topoisomerase IV ATPase inhibition
Assay type: biochemical
Conditions: values marked * are an average of two or more data points, read-out: % Inh (13 μM) of S. pneumoniae Topoisomerase IV ATPase
In short: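 S. pneumoniae ParE (1.25 nM) ATPase with 160 μM ATP and 5 μg/ml sheared DNA in pH 8.0 Tris, Mg2+, DTT, Brij-35; phosphate detected by malachite green/molybdate at 650 nm. Normalised to 2% DMSO (0%) and 20 μM EDTA (100%); IC50 from 10 concentrations.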

Chain of S. pneumoniae Topoisomerase IV ATPase (ParE) (Q59961 whole entry): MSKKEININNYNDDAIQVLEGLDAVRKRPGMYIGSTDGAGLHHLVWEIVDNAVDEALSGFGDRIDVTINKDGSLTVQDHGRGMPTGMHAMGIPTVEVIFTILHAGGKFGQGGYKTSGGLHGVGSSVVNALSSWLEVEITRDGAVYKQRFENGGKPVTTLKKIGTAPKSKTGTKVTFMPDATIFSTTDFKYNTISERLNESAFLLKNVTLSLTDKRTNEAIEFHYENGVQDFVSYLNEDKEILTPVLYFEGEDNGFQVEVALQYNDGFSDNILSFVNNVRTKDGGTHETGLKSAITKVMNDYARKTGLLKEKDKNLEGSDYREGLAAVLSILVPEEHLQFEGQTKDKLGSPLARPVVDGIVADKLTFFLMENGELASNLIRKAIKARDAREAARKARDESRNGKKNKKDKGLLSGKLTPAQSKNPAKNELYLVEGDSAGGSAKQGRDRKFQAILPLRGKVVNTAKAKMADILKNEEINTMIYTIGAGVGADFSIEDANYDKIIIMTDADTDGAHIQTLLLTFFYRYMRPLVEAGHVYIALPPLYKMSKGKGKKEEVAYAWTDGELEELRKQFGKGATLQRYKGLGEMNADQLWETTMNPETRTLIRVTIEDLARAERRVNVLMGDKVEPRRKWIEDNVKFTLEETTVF

SMILES	inhibition at 13 µM [%]
COc1cc(Nc2ncc(-c3cnc(OC)c(C(=O)NS(=O)(=O)C(C)C)c3)c(-n3ccc(C(F)(F)F)n3)n2)cc(OC)c1 [Example 818, 5-{2-[(3,5-dimethoxyphenyl)amino]-4-[3-(trifluoromethyl)-1H-pyrazol-1-yl]pyrimidin-5-yl}-2-methoxy-N-(propan-2-ylsulfonyl)pyridine-3-carboxamide]	100
COc1cc(Nc2ncc(-c3cnc(OC)c(C(=O)NS(=O)(=O)C(C)C)c3)c(-n3nc(C(F)(F)F)cc3C)n2)cc(OC)c1 [Example 819, 5-{2-[(3,5-dimethoxyphenyl)amino]-4-[5-methyl-3-(trifluoromethyl)-1H-pyrazol-1-yl]pyrimidin-5-yl}-2-methoxy-N-(propan-2-ylsulfonyl)pyridine-3-carboxamide]	100
COc1cc(Nc2ncc(-c3cnc(OC)c(C(=O)NS(=O)(=O)CCCN4CCOCC4)c3)c(-n3ccc(C(F)(F)F)n3)n2)cc(OC)c1 [Example 820, 5-{2-[(3,5-dimethoxyphenyl)amino]-4-[3-(trifluoromethyl)-1H-pyrazol-1-yl]pyrimidin-5-yl}-2-methoxy-N-{[3-(morpholin-4-yl)propyl]sulfonyl}pyridine-3-carboxamide]	100
COc1cc(Nc2ncc(-c3cnc(OC)c(C(=O)NS(=O)(=O)CCCN4CCOCC4)c3)c(-n3nc(C(F)(F)F)cc3C)n2)cc(OC)c1 [Example 821, 5-{2-[(3,5-dimethoxyphenyl)amino]-4-[5-methyl-3-(trifluoromethyl)-1H-pyrazol-1-yl]pyrimidin-5-yl}-2-methoxy-N-{[3-(morpholin-4-yl)propyl]sulfonyl}pyridine-3-carboxamide]	100
CCS(=O)(=O)NC(=O)c1cc(-c2cnc(Nc3cc(C)cc(C)c3)nc2-n2ccc(C(F)(F)F)n2)cnc1OC [Example 822, 5-{2-[(3,5-dimethylphenyl)amino]-4-[3-(trifluoromethyl)-1H-pyrazol-1-yl]pyrimidin-5-yl}-N-(ethylsulfonyl)-2-methoxypyridine-3-carboxamide]	100
CCS(=O)(=O)NC(=O)c1cc(-c2cnc(Nc3cc(C)cc(C)c3)nc2-n2nc(C(F)(F)F)cc2C)cnc1OC [Example 823]	100
CCCS(=O)(=O)NC(=O)c1cc(-c2cnc(Nc3cc(C)cc(C)c3)nc2-n2ccc(C(F)(F)F)n2)cnc1OC [Example 824, 5-{2-[(3,5-dimethylphenyl)amino]-4-[3-(trifluoromethyl)-1H-pyrazol-1-yl]pyrimidin-5-yl}-2-methoxy-N-(propylsulfonyl)pyridine-3-carboxamide]	100
CCCS(=O)(=O)NC(=O)c1cc(-c2cnc(Nc3cc(C)cc(C)c3)nc2-n2nc(C(F)(F)F)cc2C)cnc1OC [Example 825, 5-{2-[(3,5-dimethylphenyl)amino]-4-[5-methyl-3-(trifluoromethyl)-1H-pyrazol-1-yl]pyrimidin-5-yl}-2-methoxy-N-(propylsulfonyl)pyridine-3-carboxamide]	100
COc1ncc(-c2cnc(Nc3cc(C)cc(C)c3)nc2-n2ccc(C(F)(F)F)n2)cc1C(=O)NS(=O)(=O)C(C)C [Example 826, 5-{2-[(3,5-dimethylphenyl)amino]-4-[3-(trifluoromethyl)-1H-pyrazol-1-yl]pyrimidin-5-yl}-2-methoxy-N-(propan-2-ylsulfonyl)pyridine-3-carboxamide]	96
COc1ncc(-c2cnc(Nc3cc(C)cc(C)c3)nc2-n2nc(C(F)(F)F)cc2C)cc1C(=O)NS(=O)(=O)C(C)C [Example 827, 5-{2-[(3,5-dimethylphenyl)amino]-4-[5-methyl-3-(trifluoromethyl)-1H-pyrazol-1-yl]pyrimidin-5-yl}-2-methoxy-N-(propan-2-ylsulfonyl)pyridine-3-carboxamide]	100
COc1ncc(-c2cnc(Nc3cc(C)cc(C)c3)nc2-n2ccc(C(F)(F)F)n2)cc1C(=O)NS(=O)(=O)CCCN1CCOCC1 [Example 828, 5-{2-[(3,5-dimethylphenyl)amino]-4-[3-(trifluoromethyl)-1H-pyrazol-1-yl]pyrimidin-5-yl}-2-methoxy-N-{[3-(morpholin-4-yl)propyl]sulfonyl}pyridine-3-carboxamide]	100
COc1ncc(-c2cnc(Nc3cc(C)cc(C)c3)nc2-n2nc(C(F)(F)F)cc2C)cc1C(=O)NS(=O)(=O)CCCN1CCOCC1 [Example 829, 5-{2-[(3,5-dimethylphenyl)amino]-4-[5-methyl-3-(trifluoromethyl)-1H-pyrazol-1-yl]pyrimidin-5-yl}-2-methoxy-N-{[3-(morpholin-4-yl)propyl]sulfonyl}pyridine-3-carboxamide]	100
COc1cc(Nc2ncc(-c3ccc4c(c3)C(=O)NS4(=O)=O)c(-n3nc(C(F)(F)F)cc3C)n2)cc(OC)c1 [Example 830, 5-{2-[(3,5-dimethoxyphenyl)amino]-4-[5-methyl-3-(trifluoromethyl)-1H-pyrazol-1-yl]pyrimidin-5-yl}-1,2-benzothiazol-3(2H)-one 1,1-dioxide]	100
COc1cc(Nc2ncc(-c3ccc4c(c3)C(=O)NS4(=O)=O)c(-n3ccc(C(F)(F)F)n3)n2)cc(OC)c1 [Example 831, 5-{2-[(3,5-dimethoxyphenyl)amino]-4-[3-(trifluoromethyl)-1H-pyrazol-1-yl]pyrimidin-5-yl}-1,2-benzothiazol-3(2H)-one 1,1-dioxide]	89
Cc1cc(C)cc(Nc2ncc(-c3ccc4c(c3)C(=O)NS4(=O)=O)c(-n3nc(C(F)(F)F)cc3C)n2)c1 [Example 832, 5-{2-[(3,5-dimethylphenyl)amino]-4-[5-methyl-3-(trifluoromethyl)-1H-pyrazol-1-yl]pyrimidin-5-yl}-1,2-benzothiazol-3(2H)-one 1,1-dioxide]	100
Cc1cc(C)cc(Nc2ncc(-c3ccc4c(c3)C(=O)NS4(=O)=O)c(-n3ccc(C(F)(F)F)n3)n2)c1 [Example 833, 5-{2-[(3,5-dimethylphenyl)amino]-4-[3-(trifluoromethyl)-1H-pyrazol-1-yl]pyrimidin-5-yl}-1,2-benzothiazol-3(2H)-one 1,1-dioxide]	100
COc1cc(Nc2ncc(-c3cnc(OC)c(C(=O)NS(=O)(=O)c4sc(NC(C)=O)nc4C)c3)c(-n3nc(C(F)(F)F)cc3C)n2)cc(OC)c1 [Example 834, N-{[2-(acetylamino)-4-methyl-1,3-thiazol-5-yl]sulfonyl}-5-{2-[(3,5-dimethoxyphenyl)amino]-4-[5-methyl-3-(trifluoromethyl)-1H-pyrazol-1-yl]pyrimidin-5-yl}-2-methoxypyridine-3-carboxamide]	98
COc1cc(Nc2ncc(-c3cnc(OC)c(C(=O)NS(=O)(=O)CC(F)(F)F)c3)c(-n3nc(C(F)(F)F)cc3C)n2)cc(OC)c1 [Example 835, 5-{2-[(3,5-dimethoxyphenyl)amino]-4-[5-methyl-3-(trifluoromethyl)-1H-pyrazol-1-yl]pyrimidin-5-yl}-2-methoxy-N-[(2,2,2-trifluoroethyl)sulfonyl]pyridine-3-carboxamide]	95
COc1cc(Nc2ncc(-c3cnc(OC)c(C(=O)NS(=O)(=O)c4c(C)noc4C)c3)c(-n3nc(C(F)(F)F)cc3C)n2)cc(OC)c1 [Example 836, 5-{2-[(3,5-dimethoxyphenyl)amino]-4-[5-methyl-3-(trifluoromethyl)-1H-pyrazol-1-yl]pyrimidin-5-yl}-N-[(3,5-dimethyl-1,2-oxazol-4-yl)sulfonyl]-2-methoxypyridine-3-carboxamide]	94
COc1cc(Nc2ncc(-c3cnc(OC)c(C(=O)NS(=O)(=O)c4sc(C)nc4C)c3)c(-n3nc(C(F)(F)F)cc3C)n2)cc(OC)c1 [Example 837, 5-{2-[(3,5-dimethoxyphenyl)amino]-4-[5-methyl-3-(trifluoromethyl)-1H-pyrazol-1-yl]pyrimidin-5-yl}-N-[(2,4-dimethyl-1,3-thiazol-5-yl)sulfonyl]-2-methoxypyridine-3-carboxamide]	94
COc1cc(Nc2ncc(-c3cnc(OC)c(C(=O)NS(=O)(=O)CS(C)(=O)=O)c3)c(-n3nc(C(F)(F)F)cc3C)n2)cc(OC)c1 [Example 838, 5-{2-[(3,5-dimethoxyphenyl)amino]-4-[5-methyl-3-(trifluoromethyl)-1H-pyrazol-1-yl]pyrimidin-5-yl}-2-methoxy-N-{[(methylsulfonyl)methyl]sulfonyl}pyridine-3-carboxamide]	99
COc1cc(Nc2ncc(-c3cnc(OC)c(C(=O)NS(=O)(=O)c4cn(C)cn4)c3)c(-n3nc(C(F)(F)F)cc3C)n2)cc(OC)c1 [Example 839, 5-{2-[(3,5-dimethoxyphenyl)amino]-4-[5-methyl-3-(trifluoromethyl)-1H-pyrazol-1-yl]pyrimidin-5-yl}-2-methoxy-N-[(1-methyl-1H-imidazol-4-yl)sulfonyl]pyridine-3-carboxamide]	100
COc1cc(Nc2ncc(-c3cnc(OC)c(C(=O)NS(=O)(=O)C4=CCS(=O)(=O)C4)c3)c(-n3nc(C(F)(F)F)cc3C)n2)cc(OC)c1 [Example 840, 5-{2-[(3,5-dimethoxyphenyl)amino]-4-[5-methyl-3-(trifluoromethyl)-1H-pyrazol-1-yl]pyrimidin-5-yl}-N-[(1,1-dioxido-2,5-dihydrothiophen-3-yl)sulfonyl]-2-methoxypyridine-3-carboxamide]	99
COc1cc(Nc2ncc(-c3cnc(OC)c(C(=O)NS(=O)(=O)c4c(C)nn(C)c4C)c3)c(-n3nc(C(F)(F)F)cc3C)n2)cc(OC)c1 [Example 842, 5-{2-[(3,5-dimethoxyphenyl)amino]-4-[5-methyl-3-(trifluoromethyl)-1H-pyrazol-1-yl]pyrimidin-5-yl}-2-methoxy-N-[(1,3,5-trimethyl-1H-pyrazol-4-yl)sulfonyl]pyridine-3-carboxamide]	97
